Test system: neutrophils (PMA-stimulated NETosis)
Assay: Quantification of NETosis using SYTOX Green
Format: cell-based, human
Conditions: Apocynin at 100 uM; NET-forming cells as percentage of total cells
From the text: Semi-automated analysis of both phase and fluorescence images of SYTOX Green-stained neutrophils used a MATLAB algorithm. Total cells were counted by scoring phase standard deviation and radial symmetry. NETosis was classified in cells by measuring the DNA area in the fluorescence image and comparing with a select internal training set for each experiment. Unstimulated cells and PMA-stimulated, pyocyanin-inhibited cells served as negative controls. PMA-stimulated cells served as a positive control. NET-forming cells are presented as a percentage of total cells.

SMILES	% NETosis [%]
COc1cc(C(C)=O)ccc1O [Apocynin, reference compound]	29.06

Same assay, conditions: Homo sapiens, Neutrophil; NETosis, SYTOX Green-stained neutrophils, PMA-stimulated

SMILES	IC50 [µM]
COc1cccc(-c2cc3n(n2)Cc2ccc(NC(C)=O)cc2OC3)c1 [Example 2, N-(2-(3-Methoxyphenyl)-4H,10H-benzo[f]pyrazolo[5,1-c][1,4]oxazepin-7-yl)acetamide]	0.9 ± 0.2
CC#CCC(=O)Nc1cccc(-c2cc3n(n2)Cc2ccc(NC(C)=O)cc2OC3)c1 [Example 4, N-(3-(7-acetamido-4H,10H-benzo[f]pyrazolo[5,1-c][1,4]oxazepin-2-yl)phenyl)pent-3-ynamide]	0.8 ± 0.02
COc1ccc(-c2cc3n(n2)Cc2ccc(NC(C)=O)cc2OC3)cc1 [Example 3, N-(2-(4-Methoxyphenyl)-4H,10H-benzo[f]pyrazolo[5,1-c][1,4]oxazepin-7-yl)acetamide]	0.52 ± 0.06

Same assay, conditions: compound at 5 uM; NET-forming cells as percentage of total cells; vehicle 79.66, untreated 14.54

SMILES	5 uM (% NETosis) [%]
COc1cncc(-c2cc3n(n2)Cc2ccc(NC(C)=O)cc2OC3)c1 [Example 71]	69.95
CC(=O)Nc1ccc2c(c1)OCc1cc(-c3c(O)cccc3F)nn1C2 [Example 49]	42.24
OCCn1cc(Nc2ccc3c(c2)OCc2cc(-c4ccccc4)nn2C3)cn1 [Example 20]	77.97
COc1ccc(-c2cc3n(n2)Cc2ccc(NC(C)=O)cc2OC3)c(C)c1 [Example 83]	51.91
CC(=O)Nc1ccc2c(c1)OCc1cc(-c3ccccc3NS(C)(=O)=O)nn1C2 [Example 88]	71.64
CC(=O)Nc1ccc2c(c1)OCc1cc(-c3ccc(C(=O)N4CCOCC4)cc3)nn1C2 [Example 106]	86.21
COc1cnccc1-c1cc2n(n1)Cc1ccc(NC(C)=O)cc1OC2 [Example 61]	78.57
N#C[C@H]1C[C@H](Nc2ccc3c(c2)OCc2cc(-c4ccccc4)nn2C3)C1 [Example 29]	87.44
CC(=O)Nc1ccc2c(c1)OCc1cc(-c3cnccc3C#N)nn1C2 [Example 72]	80.10
CC(=O)Nc1ccc2c(c1)OCc1cc(-c3cccc4c3CN(C)C4)nn1C2 [Example 89]	84.44
CC(=O)Nc1ccc2c(c1)OCc1cc(-c3cc[nH]n3)nn1C2 [Example 57]	87.44
FC1(F)CC1CNc1ccc2c(c1)OCc1cc(-c3ccccc3)nn1C2 (centres unmarked) [Example 40]	71.44
CC(=O)Nc1ccc2c(c1)OCc1cc(-c3ccc(S(=O)(=O)N4CCN(C)CC4)cc3)nn1C2 [Example 96]	82.37
c1ccc(-c2cc3n(n2)Cc2ccc(-c4cnc5ncccn45)cc2OC3)cc1 [Example 15]	77.26
CNS(=O)(=O)c1ccccc1-c1cc2n(n1)Cc1ccc(NC(C)=O)cc1OC2 [Example 97]	81.93
CC(=O)Nc1ccc2c(c1)OCc1cc(-c3cnco3)nn1C2 [Example 52]	66.03
OCC1(Nc2ccc3c(c2)OCc2cc(-c4ccccc4)nn2C3)CC1 [Example 42]	82.57
CC(=O)Nc1ccc2c(c1)OCc1cc(-c3cccc(CC#N)c3)nn1C2 [Example 47]	62.82
CC(=O)Nc1ccc2c(c1)OCc1cc(-c3cccc(S(C)(=O)=O)c3)nn1C2 [Example 80]	46.95
CC(=O)Nc1ccc2c(c1)OCc1cc(-c3ccc(S(C)(=O)=O)nc3)nn1C2 [Example 64]	75.82
CC(=O)Nc1ccc2c(c1)OCc1cc(-c3ccc(F)cc3O)nn1C2 [Example 51]	57.20

SMILES	5 uM (% NETosis) [%]
c1ccc(-c2cc3n(n2)Cc2ccc(NC4CCCC4)cc2OC3)cc1 [Example 21, N-cyclopentyl-2-phenyl-4H,10H-benzo[f]pyrazolo[5,1-c][1,4]oxazepin-7-amine]	86.47
CC(=O)NCc1cc(-c2cc3n(n2)Cc2ccc(NC(C)=O)cc2OC3)ccc1F [Example 98]	48.65
CC(=O)Nc1ccc2c(c1)OCc1cc(-c3ccc(F)cc3C#N)nn1C2 [Example 45]	56.95
CSc1ccccc1-c1cc2n(n1)Cc1ccc(NC(C)=O)cc1OC2 [Example 43]	49.48
CC(=O)Nc1ccc2c(c1)OCc1cc(-c3c(C)n[nH]c3C)nn1C2 [Example 75]	85.26
CC(=O)Nc1ccc2c(c1)OCc1cc(-c3cn[nH]c3C)nn1C2 [Example 66]	84.91
Cn1cc(Nc2ccc3c(c2)OCc2cc(-c4ccccc4)nn2C3)cn1 [Example 25]	78.63
CC(=O)Nc1ccc2c(c1)OCc1cc(-c3ccnc4[nH]ccc34)nn1C2 [Example 91]	77.13
c1ccc(-c2cc3n(n2)Cc2ccc(NC4COC4)cc2OC3)cc1 [Example 30]	84.70
Cn1cc(C#N)c(Nc2ccc3c(c2)OCc2cc(-c4ccccc4)nn2C3)n1 [Example 18]	79.81
CC(=O)Nc1ccc2c(c1)OCc1cc(-c3c(C)cnn3C)nn1C2 [Example 59]	66.88
CC(=O)Nc1ccc2c(c1)OCc1cc(-c3cccc(F)c3)nn1C2 [Example 56]	35.77
CC(=O)Nc1ccc2c(c1)OCc1cc(-c3ccc(S(=O)(=O)N4CCOCC4)cc3)nn1C2 [Example 95]	85.90
CC(=O)Nc1ccc2c(c1)OCc1cc(-c3ccc(N4CCCC4)nc3)nn1C2 [Example 79]	83.33
CC(=O)Nc1ccc2c(c1)OCc1cc(-c3ccccc3C)nn1C2 [Example 50]	72.49
CNC(=O)c1ccc(F)c(-c2cc3n(n2)Cc2ccc(NC(C)=O)cc2OC3)c1 [Example 99]	84.59
c1ccc(-c2cc3n(n2)Cc2ccc(NC4CCC4)cc2OC3)cc1 [Example 23]	86.22
CC(=O)Nc1ccc2c(c1)OCc1cc(-c3ccc(N(C)C(C)=O)cc3)nn1C2 [Example 82]	77.67
c1ccc(-c2cc3n(n2)Cc2ccc(-c4cnn5cccnc45)cc2OC3)cc1 [Example 14]	83.04
CC(=O)Nc1ccc2c(c1)OCc1cc(-c3ccc(F)cc3CO)nn1C2 [Example 46, N-(2-(4-fluoro-2-(hydroxymethyl)phenyl)-4H,10H-benzo[f]pyrazolo[5,1-c][1,4]oxazepin-7-yl)acetamide]	51.25
CC(=O)Nc1ccc2c(c1)OCc1cc(-c3cccc(N(C)C(C)=O)c3)nn1C2 [Example 103]	75.39

SMILES	5 uM (% NETosis) [%]
CC(=O)Nc1ccc2c(c1)OCc1cc(-c3cnn(CCN(C)C)c3)nn1C2 [Example 92]	81.09
CC(=O)Nc1ccc2c(c1)OCc1cc(-c3cccc(C(=O)N(C)C)c3)nn1C2 [Example 100]	85.05
CC(=O)Nc1ccc2c(c1)OCc1cc(-c3cccc4c3CN(C)C4=O)nn1C2 [Example 90]	78.83
COc1ncc(-c2cc3n(n2)Cc2ccc(NC(C)=O)cc2OC3)cn1 [Example 77]	86.51
Cc1cn[nH]c1Nc1ccc2c(c1)OCc1cc(-c3ccccc3)nn1C2 [Example 35]	73.98
CC(C)(C)Nc1ccc2c(c1)OCc1cc(-c3ccccc3)nn1C2 [Example 38]	81.48
N#CCn1cc(-c2ccc3c(c2)OCc2cc(-c4ccccc4)nn2C3)cn1 [Example 12, 2-(4-(2-phenyl-4H,10H-benzo[f]pyrazolo[5,1-c][1,4]oxazepin-7-yl)-1H-pyrazol-1-yl)acetonitrile]	81.41
CC(=O)Nc1ccc2c(c1)OCc1cc(-c3ccnc(C#N)c3)nn1C2 [Example 69]	66.18
CC(=O)Nc1ccc2c(c1)OCc1cc(-c3cccc4[nH]c(=O)[nH]c34)nn1C2 [Example 86]	84.35
CC(=O)Nc1ccc2c(c1)OCc1cc(-c3c(F)cccc3F)nn1C2 [Example 48]	42.40
CC(=O)Nc1ccc2c(c1)OCc1cc(-c3cnc4[nH]ccc4c3)nn1C2 [Example 63]	80.04
C#Cc1ccccc1-c1cc2n(n1)Cc1ccc(NC(C)=O)cc1OC2 [Example 44]	83.27
c1ccc(-c2cc3n(n2)Cc2ccc(-c4cn[nH]c4)cc2OC3)cc1 [Example 17]	76.49
CNC(=O)c1cccc(-c2cc3n(n2)Cc2ccc(NC(C)=O)cc2OC3)c1 [Example 101]	85.18
CC(=O)Nc1ccc2c(c1)OCc1cc(-c3ccnc(C4CC4)c3)nn1C2 [Example 62]	41.23
CC(=O)Nc1ccc2c(c1)OCc1cc(-c3ccnc(NC(C)=O)c3)nn1C2 [Example 102]	85.50
Cn1nccc1Nc1ccc2c(c1)OCc1cc(-c3ccccc3)nn1C2 [Example 32]	76.40
CC(=O)Nc1ccc2c(c1)OCc1cc(-c3cccc(C#N)n3)nn1C2 [Example 78]	58.91
CC(=O)Nc1ccc2c(c1)OCc1cc(-c3cnn(CC(F)(F)F)c3)nn1C2 [Example 93]	73.17
